This passage reports EC50 results from patent US10392347B2, “2,4-dihydroxy-nicotinamides as APJ agonists” (BRISTOL-MYERS SQUIBB COMPANY, priority 2015, dated 2019).

The structures appear in SMILES notation.

For one assay, the target named is T1, human APJ receptor (Homo sapiens, UniProt P35414).
T1 construct: expressed in transfected cells
T1 sequence (P35414 1-380): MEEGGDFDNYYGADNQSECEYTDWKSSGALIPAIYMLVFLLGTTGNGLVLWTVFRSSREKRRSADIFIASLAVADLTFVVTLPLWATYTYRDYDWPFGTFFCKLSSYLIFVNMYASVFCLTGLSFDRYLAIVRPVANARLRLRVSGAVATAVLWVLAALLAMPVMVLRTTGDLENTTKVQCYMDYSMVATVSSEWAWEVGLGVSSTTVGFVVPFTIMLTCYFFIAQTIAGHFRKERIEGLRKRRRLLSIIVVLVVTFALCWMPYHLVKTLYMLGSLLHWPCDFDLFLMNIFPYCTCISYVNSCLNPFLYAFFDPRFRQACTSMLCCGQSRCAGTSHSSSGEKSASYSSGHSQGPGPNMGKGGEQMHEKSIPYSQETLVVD
As to the kind of experiment: Intracellular cAMP accumulation assay (APJ hcAMP, HTRF). The format is cell-based. Particulars: Table 1; HEK293 cells stably expressing human APJ, forskolin-stimulated cAMP; read-out: APJ cAMP EC50. Put shortly: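 Inhibition of forskolin (2 μM)-stimulated cAMP, with […], was measured after 30 min compound exposure at room temperature in stably transfected HEK293 cells. HTRF ratios were converted to cAMP via standard curve, and EC50 values came from variable-slope sigmoidal concentration-response fitting.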
Background: Changes in cAMP serve as a functional read-out for many G protein-coupled receptors.
The EC50 is the midpoint of the concentration-response curve. For the molecule `CCCCc1nc(O)c(C(=O)N(C)CCc2ccccn2)c(O)c1-c1c(OC)cccc1OC` [Example 15, 6-butyl-5-(2,6-dimethoxyphenyl)-2,4-dihydroxy-N-methyl-N-[2-(pyridin-2-yl)ethyl]pyridine-3-carboxamide], the EC50 was 0.01 to 10 nM. For `CCOCc1nc(O)c(C(=O)N2CC[C@H](c3ccccc3)C2)c(O)c1-c1c(OC)cccc1OC` [Example 26, 5-(2,6-dimethoxyphenyl)-6-(ethoxymethyl)-3-[(3R)-3-phenylpyrrolidine-1-carbonyl]pyridine-2,4-diol], the EC50 was in the range of 10 to 100 nM. As for `CCCCc1nc(O)c(C(=O)N2CCN(c3ccccc3OC)CC2)c(O)c1-c1c(OC)cccc1OC` [Example 12, 6-butyl-5-(2,6-dimethoxyphenyl)-3-[4-(2-methoxyphenyl)piperazine-1-carbonyl]pyridine-2,4-diol], the EC50 fell in the range of 0.01 to 10 nM.

With `CCCCc1nc(O)c(C(=O)N2CCN(Cc3ccccc3F)CC2)c(O)c1-c1c(OC)cccc1OC` [Example 44, 6-butyl-5-(2,6-dimethoxyphenyl)-3-{4-[(2-fluorophenyl)methyl]piperiazine-1-carbonyl}pyridine-2.4-diol], the EC50 was 0.01 to 10 nM. Still for that read-out and setting: to `CCCCc1nc(O)c(C(=O)N2CCC(c3cc(-c4ccccc4)[nH]n3)CC2)c(O)c1-c1c(OC)cccc1OC` [Example 67, 6-butyl-5-(2,6-dimethoxyphenyl)-3-[4-(5-phenyl-1H-pyrazol-3-yl)piperidine-1-carbonyl]pyridine-2,4-diol] belongs 100 to 300 nM; to `CCCCc1nc(O)c(C(=O)N2CCN(c3nccn3C)CC2)c(O)c1-c1c(OC)cccc1OC` [Example 3, 6-butyl-5-(2,6-dimethoxyphenyl)-3-[4-(1-methyl-1H-imidazol-2-yl)piperazine-1-carbonyl]pyridine-2,4-diol], 100 to 300 nM; to `CCCCc1nc(O)c(C(=O)N2CCN(c3ncccc3C(F)(F)F)CC2)c(O)c1-c1c(OC)cccc1OC` [Example 11, 6-butyl-5-(2,6-dimethoxyphenyl)-3-{4-[3-(trifluoromethyl)pyridin-2-yl]piperazine-1-carbonyl}pyridine-2,4-diol], 10 to 100 nM. With `CCCCc1nc(O)c(C(=O)N2CCN(c3cccc(Cl)c3)CC2)c(O)c1-c1c(OC)cccc1OC` [Example 58, 6-butyl-3-[4-(3-chlorophenyl)piperazine-1-carbonyl]-5-(2,6-dimethoxyphenyl)pyridine-2,4-diol], the EC50 is 10 to 100 nM.

For `CCCCc1nc(O)c(C(=O)N2CCN(c3nc(-c4ccccc4)ns3)CC2)c(O)c1-c1c(OC)cccc1OC` [Example 60, 6-butyl-5-(2,6-dimethoxyphenyl)-3-[4-(3-phenyl-1,2,4-thiadiazol-5-yl)piperazine-1-carbonyl]pyridine-2,4-diol], the EC50 was 10 to 100 nM. Still for that read-out and setting: under `CCCCc1nc(O)c(C(=O)N2CCC(c3[nH]cnc3C)CC2)c(O)c1-c1c(OC)cccc1OC` [Example 17, 6-butyl-5-(2,6-dimethoxyphenyl)-3-[4-(4-methyl-1H-imidazol-5-yl)piperidine-1-carbonyl]pyridine-2,4-diol] stands 10 to 100 nM. Same read-out and setting: under `CCCCc1nc(O)c(C(=O)N2CCC(c3cccc(Cl)c3)CC2)c(O)c1-c1c(OC)cccc1OC` [Example 56, 6-butyl-3-[4-(3-chlorophenyl)piperidine-1-carbonyl]-5-(2,6-dimethoxyphenyl)pyridine-2,4-diol] stands 10 to 100 nM. Still for that read-out and setting: to `CCCCc1nc(O)c(C(=O)N2CCC(O)(c3cccnc3)CC2)c(O)c1-c1c(OC)cccc1OC` [Example 4, 6-butyl-5-(2,6-dimethoxyphenyl)-3-[4-hydroxy-4-(pyridin-3-yl)piperidine-1-carbonyl]pyridine-2,4-diol] belongs 100 to 300 nM.

Still in this assay, the particulars now being: Table 2; HEK293 cells stably expressing human APJ, forskolin-stimulated cAMP; read-out: APJ cAMP EC50.
Regarding `CCCCc1nc(O)c(C(=O)N2CCC(c3cccc(Cl)c3)C2)c(O)c1-c1c(OC)cccc1OC` (single isomer, unassigned) [Example 37, 6-butyl-3-[3-(3-chlorophenyl)pyrrolidine-1-carbonyl]-5-(2,6-dimethoxyphenyl)pyridine-2,4-diol], the EC50 is 0.01 to 10 nM.

The same assay, now with this note: Table 3; HEK293 cells stably expressing human APJ, forskolin-stimulated cAMP; read-out: APJ cAMP EC50.
Turning to `CCCCc1nc(O)c(C(=O)N2CCC(c3ncccc3F)C2)c(O)c1-c1c(OC)cccc1OC` (stereo not shown) [Example 81, 6-butyl-5-(2,6-dimethoxyphenyl)-3-[3-(3-fluoropyridin-2-yl)pyrrolidine-1-carbonyl]pyridine-2,4-diol], the EC50 is 0.01 to 10 nM. Regarding `COc1cccc(OC)c1-c1c(-c2ccc(F)cc2)nc(O)c(C(=O)N2CCC(c3ccccc3F)C2)c1O` (stereo not shown) [Example 86, (5-(2,6-dimethoxyphenyl)-6-(4-fluorophenyl)-2,4-dihydroxypyridin-3-yl)(3-(2-fluorophenyl)pyrrolidin-1-yl)methanone], the concentration for a half-maximal effect (EC50) was in the range of 0.01 to 10 nM.

The assay is the same for the next values; noted with them: Table 4; HEK293 cells stably expressing human APJ, forskolin-stimulated cAMP; read-out: Human cAMP EC50.
Consider `CCCCc1nc(O)c(C(=O)N2CC(OCc3cccc(F)c3F)C2)c(O)c1-c1c(OC)cccc1OC` [Example 116, 6-butyl-3-{3-[(2,3-difluorophenyl)methoxy]azetidine-1-carbonyl}-5-(2,6-dimethoxyphenyl)pyridine-2,4-diol], for which the half-maximal effective concentration (EC50) was in the range of 0.01 to 10 nM. On the same count and under the same terms, under `CCCCc1nc(O)c(C(=O)N2CCN(Cc3cccc(C)c3F)CC2)c(O)c1-c1c(OC)cccc1OC` [Example 121, 6-butyl-5-(2,6-dimethoxyphenyl)-3-{4-[(2-fluoro-3-methylphenyl)methyl]piperazine-1-carbonyl}pyridine-2,4-diol] stands 0.01 to 10 nM. Consider `CCCCc1nc(O)c(C(=O)N2CCN(C(=O)c3ccc(Cl)cn3)CC2)c(O)c1-c1c(OC)cccc1OC` [Example 105, 6-butyl-3-[4-(5-chloropyridine-2-carbonyl)piperazine-1-carbonyl]-5-(2,6-dimethoxyphenyl)pyridine-2,4-diol], for which the EC50 was in the range of 0.01 to 10 nM. Still for that read-out and setting: to `CCCCc1nc(O)c(C(=O)N2CCN(Cc3cccc(F)c3F)CC2)c(O)c1-c1c(OC)cccc1OC` [Example 108, 6-butyl-3-{4-[(2,3-difluorophenyl)methyl]piperazine-1-carbonyl}-5-(2,6-dimethoxyphenyl)pyridine-2,4-diol] belongs 0.01 to 10 nM; to `CCCCc1nc(O)c(C(=O)N(C)CCNC(=O)c2ccccc2)c(O)c1-c1c(OC)cccc1OC` [Example 95, N-(2-{1-[6-butyl-5-(2,6-dimethoxyphenyl)-2,4-dihydroxypyridin-3-yl]-N-methylformamido}ethyl)benzamide], 10 to 100 nM; to `CCOCc1nc(O)c(C(=O)N2CCN(Cc3cccc(Cl)c3Cl)CC2)c(O)c1-c1c(OC)cccc1OC` [Example 104, 3-{4-[(2,3-dichlorophenyl)methyl]piperazine-1-carbonyl}-5-(2,6-dimethoxyphenyl)-6-(ethoxymethyl)pyridine-2,4-diol], 0.01 to 10 nM. On the same count and under the same terms, to `CCCCc1nc(O)c(C(=O)N(C)CCNc2ncc(Cl)cc2F)c(O)c1-c1c(OC)cccc1OC` [Example 102, 6-butyl-N-{2-[(5-chloro-3-fluoropyridin-2-yl)amino]ethyl}-5-(2,6-dimethoxyphenyl)-2,4-dihydroxy-N-methylpyridine-3-carboxamide] belongs 10 to 100 nM.

Still in this assay, the particulars now being: Table 5; HEK293 cells stably expressing human APJ, forskolin-stimulated cAMP; read-out: Human cAMP EC50.
Take `CCOCc1nc(O)c(C(=O)N2CCC(c3cccc(F)c3)C2)c(O)c1-c1c(OC)cccc1OC` (stereo not shown) [Example 124, 5-(2,6-dimethoxyphenyl)-6-(ethoxymethyl)-3-[3-(3-fluorophenyl)pyrrolidine-1-carbonyl]pyridine-2,4-diol]: the concentration giving a half-maximal response (EC50) is 0.01 to 10 nM.

Regarding `COc1cccc(OC)c1-c1c(C2CCCC2)nc(O)c(C(=O)N2CCC(c3cccc(F)c3)C2)c1O` (stereo not shown) [Example 125, 6-cyclopentyl-5-(2,6-dimethoxyphenyl)-3-[3-(3-fluorophenyl)pyrrolidine-1-carbonyl]pyridine-2,4-diol], the concentration for a half-maximal effect (EC50) was in the range of 10 to 100 nM. Still for that read-out and setting: to `CCOCc1nc(O)c(C(=O)N2CCC(c3ccccc3F)C2)c(O)c1-c1c(OC)cccc1OC` (stereo not shown) [Example 127, 5-(2,6-dimethoxyphenyl)-6-(ethoxymethyl)-3-[3-(2-fluorophenyl)pyrrolidine-1-carbonyl]pyridine-2,4-diol] belongs 0.01 to 10 nM.

Still in this assay, the particulars now being: Table 6; HEK293 cells stably expressing human APJ, forskolin-stimulated cAMP; read-out: Human cAMP EC50.
Regarding `CCOCc1nc(O)c(C(=O)N2CCC(c3c(F)cccc3F)C2)c(O)c1-c1c(OC)cccc1OC` (stereo not shown) [Example 133, 3-[3-(2,6-difluorophenyl)pyrrolidine-1-carbonyl]-5-(2,6-dimethoxyphenyl)-6-(ethoxymethyl)-4-hydroxy-1,2-dihydropyridin-2-one], the concentration for a half-maximal effect (EC50) fell in the range of 0.01 to 10 nM.

Staying with this assay, now noted: Table 7; HEK293 cells stably expressing human APJ, forskolin-stimulated cAMP; read-out: Human cAMP EC50.
With `CCCCc1nc(O)c(C(=O)N2CCC(c3ncc(F)cc3F)C2)c(O)c1-c1cccc(CO)c1` (stereo not shown) [Example 144, 6-butyl-3-[3-(3,5-difluoropyridin-2-yl)pyrrolidine-1-carbonyl]-5-[3-(hydroxymethyl)phenyl]pyridine-2,4-diol], the half-maximal effective concentration (EC50) was 0.01 to 10 nM.

Staying with this assay, now noted: Table 8; HEK293 cells stably expressing human APJ, forskolin-stimulated cAMP; read-out: Human cAMP EC50.
`CCNCc1nc(O)c(C(=O)N2CCC(c3ccccc3F)C2)c(O)c1-c1c(OC)cccc1OC` (stereo not shown) [Example 150, 5-(2,6-dimethoxyphenyl)-6-[(ethylamino)methyl]-3-[3-(2-fluorophenyl)pyrrolidine-1-carbonyl]pyridine-2,4-diol]: the EC50 lay within 10 to 100 nM.
